Laboratory results from PMC8154566, “Scaffold-Hopping Strategy on a Series of Proteasome Inhibitors Led to a Preclinical Candidate for the Treatment of Visceral Leishmaniasis” (Journal of Medicinal Chemistry, 2021).
In brackets after ≈: the same amount, converted by molar mass. Where two headings read alike, the source gives them in different places.

What was measured:
[1] = test system: L. donovani amastigotes; assay: INMAC assay: intramacrophage L. donovani in differentiated THP-1 cells; type: cell-based, Leishmania donovani; conditions: for loss of potency: INMAC, relative to compound 4; for EC50 / IC50: Leishmania donovani; for IC50: THP-1, read-out: LdInMac pIC50 (converted)
Protocol: (§1) Intramacrophage L. donovani Assay. This assay was conducted as previously described, except for […]

[2] = test system: THP-1 cells; assay: THP-1 host cell read-out of the INMAC assay; type: cell-based; conditions: for EC50 / IC50: Homo sapiens
Protocol: as §1

[3] = Mouse liver microsomal intrinsic clearance; type: in vitro ADME; conditions: for Mouse CLi: mouse liver microsomes; for Cli (mouse, ml/min/g): supplementary csv
Protocol: (§2) Intramacrophage L. donovani Assay. This assay was conducted as previously described, except for compound exposure time, which was 96 h instead of 72 h.4
(§3) Intrinsic Clearance. This assay was conducted as previously described.5 Aqueous Solubility. This assay was conducted as previously described.6
(§4) FaSSIF Solublity. This assay was conducted as previously described.5,7
(§5) In vivo Mouse Efficacy Studies. In vivo studies were carried out as previously described, with minor modifications.7 Briefly: Control drug used was Miltefosine (30 mg/kg orally, twice daily for 5 days), vehicle used was 10% (v/v) dimethyl sulfoxide (DMSO), 40% polyethylene glycol 400, and 50% deionized water (10 Ml/kg orally, twice daily for 5 days) and mice were treated with test compound intraperitoneally (50 mg/kg twice daily for 5 days). 5
(§6) All regulated procedures on living animals were carried out under the authority of a project license issued by the Home Office under the Animals (Scientific Procedures) Act 1986, as amended in 2012 (and in compliance with EU Directive EU/2010/63). Infected animals had access to food and water ad libitum and were housed under a 12 hour light/dark photoperiod. Animals used in these experiments were female NMRI and Balb/c mice (Harlan, UK).
(§7) Test compound DDD01008714 was dosed orally (P.O.) at 10 mg free base/kg (dose volume 10 mL/kg; dose vehicle: 10% (vol/vol) dimethyl sulfoxide (DMSO), 40% polyethylene glycol 400 (PEG400) and 50% deionized water) to female NMRI mice (n = 3) or intravenously (I.V.) at 3 mg free base/kg (dose volume 5 mL/kg; dose vehicle: 10% (vol/vol) dimethyl sulfoxide (DMSO) and 90% Saline) to female Balb/c mice (n = 3). Blood samples (10 μL) where taken from the tail vein of […]

[4] = FaSSIF (fasted state simulated intestinal fluid) solubility; type: physicochemical
Protocol: as §2, §3, §4, §5, §6, §7

[5] = Kinetic aqueous solubility by CLND; type: physicochemical
Protocol: We had successfully used these criteria in the hit to lead stage to identify compounds for in vivo proof-of-concept studies in another program, which subsequently led to the identification of preclinical candidate DDD853651/GSK3186899 active against CRK12.[7] […] A pharmacokinetic (PK) study was thus performed, dosed at 10 mg/kg po and 3 mg/kg iv. […] With the limited knowledge of the PK/PD drivers for the treatment of VL, we considered this to be a suitable profile for the progression of 4 into a previously reported mouse efficacy model of VL,[6],[7],[17],[18] where it was dosed twice daily at 50 mg/kg ip in order to further maximize exposure and give the best chance of achieving proof-of-concept.
as §2, §3, §4, §5, §6, §7

[6] = THP-1, Table 2, at least three replicates, SD ≤0.4, read-out: INMAC (pEC50) (converted)
[7] = THP-1, Table 2, read-out: THP-1 (pEC50) (converted)
[8] = THP-1, supplementary csv, read-out: THP1 pIC50 (converted)
[9] = Table 2, kinetic, CLND, read-out: Aq. solubility
[10] = supplementary csv, read-out: Aqueous Solubility
[11] = THP-1, Table 5, at least three replicates, SD ≤0.4, read-out: INMAC pEC50 (converted)
[12] = Table 5, at least three replicates, SD ≤0.4
[13] = THP-1, Table 5, read-out: THP-1 pEC50 (converted)
[14] = Table 5, kinetic, CLND, read-out: Aq. solubility
[15] = THP-1, Table 6, at least three replicates, SD ≤0.4, read-out: INMAC pEC50 (converted)
[16] = THP-1, Table 6, read-out: THP-1 pEC50 (converted)

Molecule	loss of potency [1]	EC50 [1, 6]	EC50 [2, 7]	IC50 [2, 8]	Mouse CLi ([3]; Table 2)	Cli (mouse, ml/min/g) [3]	solubility at 4 h ([4]; pH 6.5, Table 2)	solubility [5, 9]	solubility [5, 10]	IC50 [1]	solubility ([4]; supplementary csv)	INMAC pEC50 [1, 12]	Mouse CLi ([3]; Table 5)	also measured
O=C(Nc1cc(-c2cn3cc(N4CCOCC4)cnc3n2)ccc1F)N1CCCC1 [Compound 5, N-(2-Fluoro-5-(6-morpholinoimidazo[1,2-a]pyrimidin-2-yl)phenyl)pyrrolidine-1-carboxamide]	> 10 fold	15.8 µM	> 50.1 µM	> 50.1 µM	0.9 mL/min/g	0.9 mL/min/g	51 µM (≈ 20.9 µg/mL)	256 µM (≈ 105 µg/mL)	260 µM (≈ 107 µg/mL)					
O=C(Nc1cccc(-c2cn3cc(N4CCOCC4)cnc3n2)c1)N1CCCC1 [Compound 6, N-(3-(6-Morpholinoimidazo[1,2-a]pyrimidin-2-yl)phenyl)pyrrolidine-1-carboxamide]	> 10 fold	12.6 µM	> 50.1 µM	> 50.1 µM	0.8 mL/min/g	0.8 mL/min/g								
COc1ccc(NC(=O)N2CCCC2)cc1-c1cn2cc(N3CCOCC3)cnc2n1 [Compound 7, N-(4-Methoxy-3-(6-morpholinoimidazo[1,2-a]pyrimidin-2-yl)phenyl)pyrrolidine-1-carboxamide]	> 10 fold	> 50.1 µM	> 50.1 µM	> 50.1 µM	<0.5 mL/min/g	<0.5 mL/min/g	83 µM (≈ 35.1 µg/mL)	≥ 425 µM	≥ 430 µM	> 50.1 µM				
COc1ccc(-c2cn3cc(N4CCOCC4)cnc3n2)cc1NC(=O)N1CCCC1 [Compound 8, N-(2-Methoxy-5-(6-morpholinoimidazo[1,2-a]pyrimidin-2-yl)phenyl)pyrrolidine-1-carboxamide]	> 10 fold	20 µM	> 50.1 µM	> 50.1 µM	1.4 mL/min/g	1.4 mL/min/g	265 µM (≈ 112 µg/mL)	≥ 380 µM			270 µM (≈ 114 µg/mL)			solubility ([4]; Table 2): > 100 µM
O=C(Nc1cccc(-c2cn3cc(N4CCOCC4)cnc3n2)n1)N1CCCC1 [Compound 9, N-(6-(6-Morpholinoimidazo[1,2-a]pyrimidin-2-yl)pyridin-2-yl)pyrrolidine-1-carboxamide]	> 10 fold	> 50.1 µM	> 50.1 µM	> 50.1 µM	<0.5 mL/min/g	<0.5 mL/min/g	80 µM (≈ 31.5 µg/mL)	≥ 476 µM	≥ 480 µM	> 50.1 µM	81 µM (≈ 31.9 µg/mL)			
O=C(Nc1cc(-c2cn3cc(N4CCOCC4)cnc3n2)ncn1)N1CCCC1 [Compound 10, N-(6-(6-Morpholinoimidazo[1,2-a]pyrimidin-2-yl)pyrimidin-4-yl)pyrrolidine-1-carboxamide]	> 10 fold	> 50.1 µM	> 50.1 µM	> 50.1 µM	<0.5 mL/min/g	<0.5 mL/min/g	2050 µM (≈ 807 µg/mL)	≥ 435 µM	≥ 440 µM	> 50.1 µM	> 1000 µM			solubility ([4]; Table 2): > 100 µM
O=C(Nc1cncc(-c2cn3cc(N4CCOCC4)cnc3n2)n1)N1CCCC1 [Compound 11, N-(6-(6-Morpholinoimidazo[1,2-a]pyrimidin-2-yl)pyrazin-2-yl)pyrrolidine-1-carboxamide]	> 10 fold	> 50.1 µM	> 50.1 µM	> 50.1 µM	<0.5 mL/min/g	<0.5 mL/min/g	213 µM (≈ 84 µg/mL)	≥ 396 µM	≥ 400 µM	> 50.1 µM	210 µM (≈ 82.8 µg/mL)			solubility ([4]; Table 2): > 100 µM
O=C(Nc1cccc(-c2nc3ccccc3o2)c1)c1ccco1 [Compound 14]				> 50.1 µM		50 mL/min/g				> 50.1 µM				EC50 ([1]; THP-1, Table 3, at least three replicates, SD ≤0.4, read-out: INMAC (pEC50) (converted)): > 50.1 µM; INMAC pEC50 ([1]; Table 3, at least three replicates, SD ≤0.4): no activity; EC50 ([2]; THP-1, Table 3, read-out: THP-1 (pEC50) (converted)): > 50.1 µM; Mouse CLi ([3]; Table 3): 50 mL/min/g
O=C(Nc1cccc(-c2cc3ncc(-c4ccccc4)cn3n2)c1)N1CCCC1 [Compound 16, N-(3-(6-Phenylpyrazolo[1,5-a]pyrimidin-2-yl)phenyl)pyrrolidine-1-carboxamide]				> 50.1 µM		3.6 mL/min/g				> 50.1 µM		inactive	3.6 mL/min/g	EC50 [1, 11]: > 50.1 µM; EC50 [2, 13]: > 50.1 µM
O=C(Nc1cccc(-c2cc3cc(-c4ccccc4)cnc3[nH]2)c1)N1CCCC1 [Compound 17, N-(3-(5-Phenyl-1H-pyrrolo[2,3-b]pyridin-2-yl)phenyl)pyrrolidine-1-carboxamide]				> 50.1 µM		1.7 mL/min/g				> 50.1 µM		inactive	1.7 mL/min/g	EC50 ([1]; THP-1, read-out: INMAC pEC50 (converted)): > 50.1 µM; EC50 ([2]; THP-1, read-out: THP-1 pEC50 (converted)): > 50.1 µM; solubility [5, 14]: 3 µM (≈ 1.15 µg/mL)
O=C(Nc1ccc(F)c(-c2cc3nc(N4CCOCC4)cnc3[nH]2)c1)N1CCCC1 [Compound 18, N-(4-Fluoro-3-(2-morpholino-5H-pyrrolo[2,3-b]pyrazin-6-yl)phenyl)pyrrolidine-1-carboxamide]									10 µM (≈ 4.1 µg/mL)	> 50.1 µM		inactive	10 mL/min/g	EC50 [1, 11]: > 50.1 µM; IC50 ([2]; THP-1, read-out: THP1 pIC50 (converted)): > 50.1 µM; EC50 [2, 13]: > 50.1 µM; solubility [5, 14]: 135 µM (≈ 55.4 µg/mL)
Cn1c(-c2cc(NC(=O)N3CCCC3)ccc2F)cc2cc(N3CCOCC3)cnc21 [Compound 19, N-[4-Fluoro-3-(1-methyl-5-morpholino-pyrrolo[2,3-b]pyridin-2-yl)phenyl]pyrrolidine-1-carboxamide]				> 50.1 µM		2.4 mL/min/g				> 50.1 µM		inactive	2.4 mL/min/g	EC50 [1, 11]: > 50.1 µM; EC50 [2, 13]: > 50.1 µM
CN1CCOCC1c1cnc2nc(-c3cc(NC(=O)N4CCCC4)ccc3F)ccn12 (stereo not drawn) [Compound 33, N-(4-Fluoro-3-(3-(4-methylmorpholin-3-yl)imidazo[1,2-a]pyrimidin-7-yl)phenyl)pyrrolidine-1-carboxamide]				50.1 µM		3.8 mL/min/g					> 1000 µM			EC50 [1, 15]: 5.01 µM; EC50 [2, 16]: 50.1 µM; Mouse CLi ([3]; Table 6): 3.8 mL/min/g; solubility at 4 h ([4]; pH 6.5, Table 6): 2340 µM (≈ 994 µg/mL)
O=C1CN(c2cnc3nc(-c4cc(NC(=O)N5CCCC5)ccc4F)ccn23)CCN1 [Compound 37, N-(4-Fluoro-3-(3-(3-oxopiperazin-1-yl)imidazo[1,2-a]pyrimidin-7-yl)phenyl)pyrrolidine-1-carboxamide]				> 50.1 µM		1.1 mL/min/g				> 50.1 µM	820 µM (≈ 347 µg/mL)			EC50 [1, 15]: > 50.1 µM; EC50 [2, 16]: > 50.1 µM; Mouse CLi ([3]; Table 6): 1.1 mL/min/g; solubility at 4 h ([4]; pH 6.5, Table 6): 815 µM (≈ 345 µg/mL)
N-(3-(7-Phenylimidazo[1,2-b][1,2,4]triazin-3-yl)phenyl)pyrrolidine-1-carboxamide [Compound 27]						3.3 mL/min/g						5.9	3.3 mL/min/g	LdInMac pIC50 ([1]; supplementary csv): 5.9; THP-1 pEC50 ([2]; Table 5): <4.3; THP1 pIC50 ([2]; supplementary csv): <4.3; solubility ([4]; Table 5): 3.0 µM
